Measured values taken from patent publication US20260083865A1, “PROSTATE SPECIFIC MEMBRANE ANTIGEN (PSMA) LIGANDS AND USE THEREOF” (priority 2022, published 2026).
Where two headings read alike, the source gives them in different places. Numbered stars: 1 amine (or outer) side, 2 acyl side, 3 side chain; on linkers, the order of the positions; unused ones are H or OH. Bridge positions count the residues as written; N and C are the ends. Square brackets hold non-standard residues; d marks the D form. Peptide text beside a SMILES is read from it. * marks the point of attachment. TtdsdLys(DOTA)NH2 = NC(=O)[C@@H](CCCCNC(=O)CN1CCN(CC(=O)O)CCN(CC(=O)O)CCN(CC(=O)O)CC1)NC(=O)CCC(=O)NCCCOCCOCCOCCCN*; DOTA = O=C(O)CN1CCN(CC(=O)O)CCN(CC(=O)*)CCN(CC(=O)O)CC1; Phe(3,4-Cl2) = N[C@@H](Cc1ccc(Cl)c(Cl)c1)C(=O)O; Phe(4-Cl) = N[C@@H](Cc1ccc(Cl)cc1)C(=O)O; Phe(3-Me) = Cc1cccc(C[C@H](N)C(=O)O)c1; Arg(Me) = CNC(=N)NCCC[C@H](N)C(=O)O; Lys(iPr) = CC(C)NCCCC[C@H](N)C(=O)O; 3Pal = N[C@@H](Cc1cccnc1)C(=O)O; X1 = O=C(CC1CCN([*:1])CC1)[*:2]; Cit = NC(=O)NCCC[C@H](N)C(=O)O; Lys(Me) = CNCCCC[C@H](N)C(=O)O; Tle = CC(C)(C)[C@H](N)C(=O)O; Hexanoyl = CCCCCC(=O)*; Aib = CC(C)(N)C(=O)O

Tests used:
[1] = target: T1, Fc-fusion protein of human PSMA (hPSMA-Fc) (Homo sapiens, UniProt Q04609); test: Surface plasmon resonance assay (Biacore T200, single cycle kinetic); format: binding; settings: hPSMA-Fc, 25° C., read-out: pKD CAT (converted)
T1 construct: purchased Acro Biosystems PSA-H5264
T1 sequence (Q04609 44-750 limits assumed): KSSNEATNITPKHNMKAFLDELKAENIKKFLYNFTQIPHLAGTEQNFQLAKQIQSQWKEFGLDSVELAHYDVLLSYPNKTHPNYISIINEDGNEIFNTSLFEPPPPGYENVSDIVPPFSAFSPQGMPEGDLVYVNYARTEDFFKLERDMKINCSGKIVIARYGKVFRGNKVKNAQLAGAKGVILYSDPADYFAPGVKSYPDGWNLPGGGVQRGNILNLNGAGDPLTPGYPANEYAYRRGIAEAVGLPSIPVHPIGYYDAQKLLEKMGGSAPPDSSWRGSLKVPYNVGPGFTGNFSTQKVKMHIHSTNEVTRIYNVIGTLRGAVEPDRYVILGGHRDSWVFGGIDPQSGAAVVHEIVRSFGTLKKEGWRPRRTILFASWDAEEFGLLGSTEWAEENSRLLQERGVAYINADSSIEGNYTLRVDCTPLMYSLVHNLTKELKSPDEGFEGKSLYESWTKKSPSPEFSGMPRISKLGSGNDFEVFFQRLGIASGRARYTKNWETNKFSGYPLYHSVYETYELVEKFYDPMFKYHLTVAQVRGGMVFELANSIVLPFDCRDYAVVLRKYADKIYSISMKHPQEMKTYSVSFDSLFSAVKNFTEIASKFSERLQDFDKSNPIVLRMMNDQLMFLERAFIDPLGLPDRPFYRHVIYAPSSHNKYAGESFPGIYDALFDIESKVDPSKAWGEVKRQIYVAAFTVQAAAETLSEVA
Method in brief: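 hPSMA-Fc was captured (~1000 RU) on an Fc-binding-peptide CM5 chip, and compounds were run in single cycle kinetic mode at 25° C in HBST with 0.1% DMSO. Double-blank-corrected sensorgrams were fitted to a 1:1 Langmuir model to give KD, reported as pKD.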

[2] = target: T2, PSMA-expressing C4-2 cells (Homo sapiens, UniProt Q04609); test: FACS binding assay (competition with 50 nM PSM-0183); settings: read-out: pIC50 [C4-2] CAT (converted)
T2 construct: PSMA-expressing C4-2 cells (ATCC, Cat. No. CRL-3314) were cultured in RPMI-1640; host or cells: C4-2 cells
T2 sequence (Q04609 whole entry): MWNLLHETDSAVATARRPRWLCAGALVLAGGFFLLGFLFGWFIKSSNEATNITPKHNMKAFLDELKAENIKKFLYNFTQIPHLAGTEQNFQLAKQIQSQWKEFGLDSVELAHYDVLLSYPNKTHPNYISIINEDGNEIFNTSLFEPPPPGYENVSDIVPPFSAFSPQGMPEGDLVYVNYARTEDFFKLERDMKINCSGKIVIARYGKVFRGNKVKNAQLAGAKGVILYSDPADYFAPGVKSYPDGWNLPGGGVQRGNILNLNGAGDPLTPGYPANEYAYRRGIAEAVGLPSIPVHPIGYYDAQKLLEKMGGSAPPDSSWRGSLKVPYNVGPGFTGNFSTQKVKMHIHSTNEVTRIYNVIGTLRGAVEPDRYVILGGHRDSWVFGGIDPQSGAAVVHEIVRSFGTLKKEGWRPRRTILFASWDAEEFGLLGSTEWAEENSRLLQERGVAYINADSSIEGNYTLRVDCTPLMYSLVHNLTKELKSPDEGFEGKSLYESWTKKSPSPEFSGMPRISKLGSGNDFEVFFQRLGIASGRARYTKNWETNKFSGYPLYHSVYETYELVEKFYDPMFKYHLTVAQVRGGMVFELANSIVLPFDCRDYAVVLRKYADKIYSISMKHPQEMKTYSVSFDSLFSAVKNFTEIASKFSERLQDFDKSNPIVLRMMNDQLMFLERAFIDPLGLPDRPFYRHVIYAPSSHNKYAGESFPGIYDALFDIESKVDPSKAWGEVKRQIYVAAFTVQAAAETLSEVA
Method in brief: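 C4-2 cells were incubated 1 h at 4 °C with 50 nM AF488-labelled peptide PSM-0183 plus increasing test compound concentrations, then washed twice in ice-cold buffer. Median fluorescence in the AF488 channel was read by flow cytometry. IC50/pIC50 was derived by 4PL fitting of MFI versus concentration.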

[3] = FACS binding, PSMA-expressing C4-2 cells, pIC50 category
[4] = pKD category for PSMA SPR activity assay
[5] = pIC50 category of FACS binding, C4-2 cells

Row | Kd [1, 4] [µM] | IC50 [2, 5] [µM] | SMILES | also measured
1 | < 0.0126 | < 0.2 | CC(=O)N[C@H](C(=O)NC(C)(C)C(=O)N[C@@H](Cc1cccc(C)c1)C(=O)N[C@H]1CSSC[C@@H](C(=O)N[C@H](C(=O)N[C@H](C(N)=O)[C@@H](C)O)C(C)(C)C)NC(=O)[C@H](CC(N)=O)NC(=O)C(C)(C)NC(=O)[C@H](CCCNC(=N)N)NC(=O)[C@H](CCCCN)NC1=O)[C@@H](C)O [PSM-0412, Ac-Thr-Aib-Mmf-[Cys-Lys-Arg-Aib-Asn-Cys]-Tle-Thr-NH2] (Ac-T[Aib][Phe(3-Me)]CKR[Aib]NC[Tle]T-NH2; disulfide 4-9) | –
2 | 0.0126 to 0.126 | < 0.2 | CC(=O)N[C@H](C(=O)NC(C)(C)C(=O)N[C@@H](Cc1ccc(O)cc1)C(=O)N[C@H]1CSSC[C@@H](C(=O)N[C@H](C(=O)N[C@H](C(=O)N[C@@H](CC(=O)O)C(N)=O)[C@@H](C)O)C(C)(C)C)NC(=O)[C@H](CC(N)=O)NC(=O)C(C)(C)NC(=O)[C@H](CCCNC(=N)N)NC(=O)[C@H](CCCCN)NC1=O)[C@@H](C)O [PSM-0488, Ac-Thr-Aib-Tyr-[Cys-Lys-Arg-Aib-Asn-Cys]-Tle-Thr-Asp-NH2] (Ac-T[Aib]YCKR[Aib]NC[Tle]TD-NH2; disulfide 4-9) | –

Second part, the compound before the results:

Row | SMILES | Kd [1, 4] [µM] | IC50 [2, 5] [µM] | also measured
3 | CNCCCC[C@@H]1NC(=O)[C@@H](NC(=O)[C@H](Cc2cccnc2)NC(=O)C(C)(C)NC(=O)[C@@H](NC(=O)CC2CCN(C(=O)CN3CCN(CC(=O)O)CCN(CC(=O)O)CCN(CC(=O)O)CC3)CC2)[C@@H](C)O)CSSC[C@@H](C(=O)N[C@H](C(=O)N[C@H](C(N)=O)[C@@H](C)O)C(C)(C)C)NC(=O)[C@H](CC(N)=O)NC(=O)C(C)(C)NC(=O)[C@H](CCCNC(=N)NC)NC1=O [PSM-0296, DOTA-Cmp-Thr-Aib-Mpa-[Cys-Lys(Me)-Arg(Me)-Aib-Asn-Cys]-Tle-Thr-NH2] ({DOTA}-[X1]T[Aib][3Pal]C[Lys(Me)][Arg(Me)][Aib]NC[Tle]T-NH2; disulfide 5-10) | – | – | Kd ([1]; PSMA SPR assay, pKD category): 0.126 to 0.501 µM; IC50 [2, 3]: 0.2 to 1.26 µM
4 | CNCCCC[C@@H]1NC(=O)[C@@H](NC(=O)[C@H](Cc2cccc(C)c2)NC(=O)C(C)(C)NC(=O)[C@@H](NC(=O)CC2CCN(C(=O)CN3CCN(CC(=O)O)CCN(CC(=O)O)CCN(CC(=O)O)CC3)CC2)[C@@H](C)O)CSSC[C@@H](C(=O)N[C@H](C(N)=O)C(C)(C)C)NC(=O)[C@H](CC(N)=O)NC(=O)C(C)(C)NC(=O)[C@H](CCCNC(=N)NC)NC1=O [PSM-0503, DOTA-Cmp-Thr-Aib-Mmf-[Cys-Lys(Me)-Arg(Me)-Aib-Asn-Cys]-Tle-NH2] ({DOTA}-[X1]T[Aib][Phe(3-Me)]C[Lys(Me)][Arg(Me)][Aib]NC[Tle]-NH2; disulfide 5-10) | 0.0126 to 0.126 | < 0.2 | –
5 | C[C@@H](O)[C@H](NC(=O)[C@@H](NC(=O)[C@@H]1CSSC[C@H](NC(=O)[C@H](Cc2ccc(Cl)c(Cl)c2)NC(=O)C(C)(C)NC(=O)[C@@H](NC(=O)CC2CCN(C(=O)CN3CCN(CC(=O)O)CCN(CC(=O)O)CCN(CC(=O)O)CC3)CC2)[C@@H](C)O)C(=O)N[C@@H](CCCCN)C(=O)N[C@@H](CCCNC(N)=O)C(=O)NC(C)(C)C(=O)N[C@@H](CC(N)=O)C(=O)N1)C(C)(C)C)C(N)=O [PSM-0274, DOTA-Cmp-Thr-Aib-Eaa-[Cys-Lys-Cit-Aib-Asn-Cys]-Tle-Thr-NH2] ({DOTA}-[X1]T[Aib][Phe(3,4-Cl2)]CK[Cit][Aib]NC[Tle]T-NH2; disulfide 5-10) | – | – | Kd ([1]; PSMA SPR assay, pKD category): 0.0126 to 0.126 µM; IC50 [2, 3]: < 0.2 µM
6 | CCCCCC(=O)N[C@H](C(=O)NC(C)(C)C(=O)N[C@@H](Cc1ccccc1)C(=O)N[C@H]1CSSC[C@@H](C(=O)N[C@H](C(=O)N[C@H](C(=O)N[C@@H](CC(=O)O)C(=O)NCCCOCCOCCOCCCNC(=O)CCC(=O)N[C@H](CCCCNC(=O)CN2CCN(CC(=O)O)CCN(CC(=O)O)CCN(CC(=O)O)CC2)C(N)=O)[C@@H](C)O)C(C)(C)C)NC(=O)[C@H](CC(N)=O)NC(=O)[C@H](C)NC(=O)[C@H](CCCNC(=N)N)NC(=O)[C@H](CCCCN)NC1=O)[C@@H](C)O [PSM-0502, Hex-Thr-Aib-Phe-[Cys-Lys-Arg-Ala-Asn-Cys]-Tle-Thr-Asp-Ttds-lys(DOTA)-NH2] (Hexanoyl-T[Aib]FCKRANC[Tle]TD-{TtdsdLys(DOTA)NH2}; disulfide 4-9) | < 0.0126 | < 0.2 | –
7 | CNC(=N)NCCC[C@@H]1NC(=O)[C@H](CCCCNC(C)C)NC(=O)[C@@H](NC(=O)[C@H](Cc2ccc(Cl)cc2)NC(=O)C(C)(C)NC(=O)[C@@H](NC(=O)CC2CCN(C(=O)CN3CCN(CC(=O)O)CCN(CC(=O)O)CCN(CC(=O)O)CC3)CC2)[C@@H](C)O)CSSC[C@@H](C(=O)N[C@H](C(=O)N[C@H](C(N)=O)[C@@H](C)O)C(C)(C)C)NC(=O)[C@H](CC(N)=O)NC(=O)C(C)(C)NC1=O [PSM-0244, DOTA-Cmp-Thr-Aib-Pcf-[Cys-Kip-Arg(Me)-Aib-Asn-Cys]-Tle-Thr-NH2] ({DOTA}-[X1]T[Aib][Phe(4-Cl)]C[Lys(iPr)][Arg(Me)][Aib]NC[Tle]T-NH2; disulfide 5-10) | – | – | Kd ([1]; SPR, single cycle kinetic, category): < 0.0126 µM; IC50 ([2]; FACS binding, C4-2 cells, competition with 50 nM PSM-0183, category): < 0.2 µM
